In paper PMC8201479, “Trisubstituted Pyrrolinones as Small-Molecule Inhibitors Disrupting the Protein–RNA Interaction of LIN28 and Let-7” (ACS Medicinal Chemistry Letters, 2021):

Columns and labels:
[1] = biological target: T1, cold shock domain of LIN28A (residues 16–126) (Homo sapiens, UniProt Q9H9Z2); test: Thermal shift assay (nano-differential scanning fluorimetry); format: binding; settings: 30 µM protein, compound 100 µM to 0.78 µM
T1 construct: cold shock domain construct LIN28 A (residues 16– 126)
T1 sequence (Q9H9Z2 16-126): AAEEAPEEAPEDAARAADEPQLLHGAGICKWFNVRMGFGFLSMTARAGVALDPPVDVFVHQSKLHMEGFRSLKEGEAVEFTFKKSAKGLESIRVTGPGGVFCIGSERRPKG
Procedure: was detected after incubation at room temperature using a TECAN Spark plate reader. Half maximal […]
inhibitory concentrations (IC50) were determined using GraphPad Prism 7.
Compound screening. High throughput screening was performed in low volume 384 well plates […]
(Corning 4514) with 30 µM compound, 40 nM LIN28A, and 2 nM preE-let-7f-1-FAM in FP assay […]
buffer. Compounds were transferred with an ECHO 520 liquid handler and protein and RNA were […]
added with a multidrop dispenser. Protein and RNA were added stepwise with a 30 min incubation […]
period in between. FP was detected after a final incubation of 15 min with an Envision plate reader […]
and fluorescence was measured with a Paradigm plate reader. A reaction without LIN28 served as a […]
negative control and one without compound was used as a positive control. The software Quattro […]
fluorescence was detected with a ChemiDoc M P (Bio-Rad) and 2 minutes of exposure time. […]
126) with and without compound was monitored using a NanoTemper Prometheus NT.48 nano - […]
differential scanning fluorimetry (nanoDSF) instrument at temperatures between 20 °C and 90 °C and a temperature slope of 1 °C per minute with an excitation power of 50–60 %. […] The ratio of intrinsic tryptophan fluorescence at 350 nm and 330 nm was measured and the first derivative was determined to detect the inflection points using the software of the device. […]

[2] = biological target: T2, LIN28–let-7 interaction (Homo sapiens, UniProt Q9H9Z2); test: Fluorescence polarization (FP) assay, LIN28A (residues 16–187) and FAM-labeled preE-let-7f-1; format: binding; settings: for FP, Average (mP): raw data Table S3, four replicates
T2 construct: Purified LIN28A (residues 16–187) was incubated at a concentration of 200 nM; His-tag (cleaved yes); made in house; host or cells: Escherichia coli BL21(DE3)
T2 sequence (Q9H9Z2 16-187): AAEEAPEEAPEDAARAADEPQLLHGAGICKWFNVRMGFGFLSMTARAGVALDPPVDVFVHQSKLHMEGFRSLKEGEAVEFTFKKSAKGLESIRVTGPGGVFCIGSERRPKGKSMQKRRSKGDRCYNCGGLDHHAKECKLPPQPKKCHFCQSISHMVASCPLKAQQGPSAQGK

thermal stability of the CSD of LIN28A [1]: concentration-dependent enhancement
IC50 ([2]; Table 1, quadruplicate, starting from a maximum concentration of 60 μM, eight concentrations, read-out: IC50, LIN28–let-7 inhibitory activity): 5 µM
FP, Average (mP) ([2]; 0.041 μM compound): 109.25 mP
FP, Average (mP) ([2]; 0.123 μM compound): 110.00 mP
FP, Average (mP) ([2]; 0.368 μM compound): 113.50 mP
FP, Average (mP) ([2]; 1.103 μM compound): 105.75 mP
FP, Average (mP) ([2]; 3.125 μM compound): 75.05 mP
FP, Average (mP) ([2]; 9.375 μM compound): 64.03 mP
FP, Average (mP) ([2]; 29.688 μM compound): 43.05 mP
FP, Average (mP) ([2]; 59.375 μM compound): 38.75 mP
SMILES: O=C(C1=C(O)C(=O)N(c2ccc(O)c(C(=O)O)c2)C1c1ccc(-c2nccs2)cc1)c1ccc(Br)cc1 (stereo not shown) [C902/PH-31]
